Among the data in patent publication US9493478B2, “Fused ring compound containing furan or salt thereof and pharmaceutical composition comprising same” (YUHAN CORPORATION, priority 2012, dated 2016) are IC50 values, retold here.

What all share (assay type): biochemical
For one assay, the target named is PI3Kα (p110α/p85α)(h) (Homo sapiens, UniProt P42336). Description: Assay for phosphatidylinositol 3-kinase alpha (PI3Kα) activity, PI3K-HTRF kit. As to conditions: TR-FRET; enzyme 0.3625 μg/ml, 10 μM PIP2, 10 μM ATP.
PI3Kα (p110α/p85α)(h), sequence (P42336 whole entry): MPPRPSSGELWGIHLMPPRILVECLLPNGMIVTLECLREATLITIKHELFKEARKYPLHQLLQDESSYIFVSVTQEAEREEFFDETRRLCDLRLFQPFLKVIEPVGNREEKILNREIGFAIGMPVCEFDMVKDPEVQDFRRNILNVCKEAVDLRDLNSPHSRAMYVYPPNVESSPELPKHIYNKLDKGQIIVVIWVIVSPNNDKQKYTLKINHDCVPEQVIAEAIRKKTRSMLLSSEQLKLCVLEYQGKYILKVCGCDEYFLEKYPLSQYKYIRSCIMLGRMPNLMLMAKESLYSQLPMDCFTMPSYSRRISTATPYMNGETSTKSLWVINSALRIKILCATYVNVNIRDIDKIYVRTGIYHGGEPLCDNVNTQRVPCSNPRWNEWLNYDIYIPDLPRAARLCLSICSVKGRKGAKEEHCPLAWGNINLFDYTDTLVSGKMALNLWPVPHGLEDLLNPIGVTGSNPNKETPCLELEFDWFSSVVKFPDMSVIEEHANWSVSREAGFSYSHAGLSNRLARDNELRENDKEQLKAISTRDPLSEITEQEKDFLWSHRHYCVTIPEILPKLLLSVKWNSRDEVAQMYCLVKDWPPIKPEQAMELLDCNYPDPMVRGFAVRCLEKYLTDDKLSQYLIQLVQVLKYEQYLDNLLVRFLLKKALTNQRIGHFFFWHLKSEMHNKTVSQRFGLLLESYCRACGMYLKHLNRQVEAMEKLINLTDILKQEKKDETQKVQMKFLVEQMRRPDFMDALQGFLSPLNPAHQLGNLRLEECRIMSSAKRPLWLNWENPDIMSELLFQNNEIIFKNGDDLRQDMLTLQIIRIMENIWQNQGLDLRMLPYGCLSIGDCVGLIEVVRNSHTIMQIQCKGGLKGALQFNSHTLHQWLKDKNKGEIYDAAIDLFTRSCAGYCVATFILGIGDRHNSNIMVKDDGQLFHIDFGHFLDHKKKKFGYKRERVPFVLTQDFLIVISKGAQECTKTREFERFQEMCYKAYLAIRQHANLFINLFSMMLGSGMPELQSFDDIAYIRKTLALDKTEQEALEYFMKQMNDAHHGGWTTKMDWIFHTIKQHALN
PI3Kα (p110α/p85α)(h), sequence (P27986 whole entry partner): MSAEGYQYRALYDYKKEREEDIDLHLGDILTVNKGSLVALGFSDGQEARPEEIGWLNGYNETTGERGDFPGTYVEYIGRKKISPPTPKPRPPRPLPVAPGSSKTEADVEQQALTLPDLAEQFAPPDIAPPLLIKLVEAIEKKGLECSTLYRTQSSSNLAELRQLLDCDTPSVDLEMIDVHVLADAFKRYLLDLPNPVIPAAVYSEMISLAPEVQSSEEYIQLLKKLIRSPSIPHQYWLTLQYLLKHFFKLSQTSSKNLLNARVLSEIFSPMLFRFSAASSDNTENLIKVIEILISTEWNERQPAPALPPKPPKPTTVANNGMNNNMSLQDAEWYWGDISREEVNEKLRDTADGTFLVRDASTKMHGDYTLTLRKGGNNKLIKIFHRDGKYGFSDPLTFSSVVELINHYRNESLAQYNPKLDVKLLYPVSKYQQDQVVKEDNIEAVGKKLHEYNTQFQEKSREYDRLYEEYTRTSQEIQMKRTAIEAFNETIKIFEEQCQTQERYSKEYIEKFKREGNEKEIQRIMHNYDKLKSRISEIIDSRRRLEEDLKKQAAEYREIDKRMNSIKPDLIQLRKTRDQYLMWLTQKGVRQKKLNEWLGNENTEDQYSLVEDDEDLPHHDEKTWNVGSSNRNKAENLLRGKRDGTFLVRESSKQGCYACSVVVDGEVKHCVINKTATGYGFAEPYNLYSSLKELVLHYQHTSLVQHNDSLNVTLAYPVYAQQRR
In the next assay the target is PI3Kγ (p120γ)(h) (Homo sapiens, UniProt P48736). Description: Assay for phosphatidylinositol 3-kinase gamma (PI3Kγ) activity, PI3K-HTRF kit. As to conditions: TR-FRET; enzyme 1.45 μg/ml, 10 μM PIP2, 10 μM ATP. Summed up:
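Recombinant PI3Kγ (1.45 μg/ml final) preincubated ~10 min with compound, then reacted with 10 μM PIP2 and 10 μM ATP for 90 min at room temperature. PIP3 detected by HTRF (biotin-PIP3/Eu-PH domain/APC), 665/620 nm ratio after 6 h; IC50 from inhibition relative to controls.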

Another assay deals with PI3Kδ (p110δ/p85α)(h) (Homo sapiens, UniProt O00329). Description: Assay for phosphatidylinositol 3-kinase delta (PI3Kδ) activity, PI3K-HTRF kit. As to conditions: TR-FRET; enzyme 0.725 μg/ml, 10 μM PIP2, 10 μM ATP.
PI3Kδ (p110δ/p85α)(h), sequence (O00329 whole entry): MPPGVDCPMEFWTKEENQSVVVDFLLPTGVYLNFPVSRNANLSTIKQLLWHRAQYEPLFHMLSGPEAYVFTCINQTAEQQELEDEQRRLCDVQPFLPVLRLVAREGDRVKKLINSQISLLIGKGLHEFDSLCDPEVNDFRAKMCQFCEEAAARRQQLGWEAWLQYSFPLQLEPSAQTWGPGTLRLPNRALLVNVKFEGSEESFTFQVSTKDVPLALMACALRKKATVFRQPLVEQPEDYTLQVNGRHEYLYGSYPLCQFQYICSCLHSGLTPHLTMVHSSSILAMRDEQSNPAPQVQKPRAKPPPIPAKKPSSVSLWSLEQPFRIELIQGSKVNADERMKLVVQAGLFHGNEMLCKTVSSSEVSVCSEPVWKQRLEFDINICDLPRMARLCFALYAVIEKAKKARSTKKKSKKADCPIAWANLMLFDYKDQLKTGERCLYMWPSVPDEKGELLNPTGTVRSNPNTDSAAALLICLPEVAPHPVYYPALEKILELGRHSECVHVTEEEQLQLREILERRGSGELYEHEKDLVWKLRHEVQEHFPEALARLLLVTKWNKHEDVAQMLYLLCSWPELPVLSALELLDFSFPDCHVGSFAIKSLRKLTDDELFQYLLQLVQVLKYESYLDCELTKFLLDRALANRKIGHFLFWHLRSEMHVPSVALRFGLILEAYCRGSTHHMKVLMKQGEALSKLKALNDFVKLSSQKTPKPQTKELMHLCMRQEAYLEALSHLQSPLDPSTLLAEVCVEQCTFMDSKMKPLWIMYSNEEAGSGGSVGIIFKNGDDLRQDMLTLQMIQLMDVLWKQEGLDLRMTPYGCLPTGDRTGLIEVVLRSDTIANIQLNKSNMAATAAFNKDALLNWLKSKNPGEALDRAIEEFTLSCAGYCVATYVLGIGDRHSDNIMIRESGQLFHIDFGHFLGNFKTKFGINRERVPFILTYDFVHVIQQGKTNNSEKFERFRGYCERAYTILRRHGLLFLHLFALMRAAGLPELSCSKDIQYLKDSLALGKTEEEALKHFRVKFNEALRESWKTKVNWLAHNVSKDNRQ
PI3Kδ (p110δ/p85α)(h), sequence (P27986 whole entry partner): as the sequence (P27986 whole entry partner) above
The target of a further assay is PI3K β (p110β/p85α)(h) (Homo sapiens, UniProt P42338). Nature of the assay: Assay for phosphatidylinositol 3-kinase beta (PI3Kβ) activity, PI3K-HTRF kit. As to conditions: TR-FRET; enzyme 0.725 μg/ml, 10 μM PIP2, 10 μM ATP.
PI3K β (p110β/p85α)(h), sequence (P42338 whole entry): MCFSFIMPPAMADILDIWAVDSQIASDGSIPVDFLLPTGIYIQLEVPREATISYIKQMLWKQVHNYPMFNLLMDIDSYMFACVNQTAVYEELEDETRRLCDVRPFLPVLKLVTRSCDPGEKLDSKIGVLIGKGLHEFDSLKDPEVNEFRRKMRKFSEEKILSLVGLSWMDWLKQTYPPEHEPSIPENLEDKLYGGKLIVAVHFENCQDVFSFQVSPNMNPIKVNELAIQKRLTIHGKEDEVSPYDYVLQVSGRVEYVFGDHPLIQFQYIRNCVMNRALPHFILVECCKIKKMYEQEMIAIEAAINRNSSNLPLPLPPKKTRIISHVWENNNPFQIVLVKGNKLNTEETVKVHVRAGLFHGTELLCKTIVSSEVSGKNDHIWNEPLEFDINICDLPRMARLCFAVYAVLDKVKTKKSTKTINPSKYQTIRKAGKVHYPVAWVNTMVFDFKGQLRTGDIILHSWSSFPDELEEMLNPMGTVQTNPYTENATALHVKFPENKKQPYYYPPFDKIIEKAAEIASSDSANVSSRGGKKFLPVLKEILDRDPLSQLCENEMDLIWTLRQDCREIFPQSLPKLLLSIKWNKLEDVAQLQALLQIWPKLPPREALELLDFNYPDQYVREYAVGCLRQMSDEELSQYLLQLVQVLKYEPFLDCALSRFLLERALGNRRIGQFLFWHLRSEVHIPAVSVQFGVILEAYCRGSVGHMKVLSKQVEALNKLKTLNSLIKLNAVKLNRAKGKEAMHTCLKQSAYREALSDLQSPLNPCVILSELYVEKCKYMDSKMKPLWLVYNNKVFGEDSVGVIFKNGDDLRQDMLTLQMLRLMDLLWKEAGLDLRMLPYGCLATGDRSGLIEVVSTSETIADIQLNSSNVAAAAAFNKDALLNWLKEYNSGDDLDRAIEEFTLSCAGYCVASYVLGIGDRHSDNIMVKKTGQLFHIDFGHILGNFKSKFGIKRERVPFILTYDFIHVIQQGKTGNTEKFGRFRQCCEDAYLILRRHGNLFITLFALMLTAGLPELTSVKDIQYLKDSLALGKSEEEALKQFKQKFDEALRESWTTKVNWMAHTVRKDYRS
PI3K β (p110β/p85α)(h), sequence (P27986 whole entry partner): as the sequence (P27986 whole entry partner) above

PI3Kγ (p120γ)(h), sequence (P48736 whole entry, the tested form may be a part): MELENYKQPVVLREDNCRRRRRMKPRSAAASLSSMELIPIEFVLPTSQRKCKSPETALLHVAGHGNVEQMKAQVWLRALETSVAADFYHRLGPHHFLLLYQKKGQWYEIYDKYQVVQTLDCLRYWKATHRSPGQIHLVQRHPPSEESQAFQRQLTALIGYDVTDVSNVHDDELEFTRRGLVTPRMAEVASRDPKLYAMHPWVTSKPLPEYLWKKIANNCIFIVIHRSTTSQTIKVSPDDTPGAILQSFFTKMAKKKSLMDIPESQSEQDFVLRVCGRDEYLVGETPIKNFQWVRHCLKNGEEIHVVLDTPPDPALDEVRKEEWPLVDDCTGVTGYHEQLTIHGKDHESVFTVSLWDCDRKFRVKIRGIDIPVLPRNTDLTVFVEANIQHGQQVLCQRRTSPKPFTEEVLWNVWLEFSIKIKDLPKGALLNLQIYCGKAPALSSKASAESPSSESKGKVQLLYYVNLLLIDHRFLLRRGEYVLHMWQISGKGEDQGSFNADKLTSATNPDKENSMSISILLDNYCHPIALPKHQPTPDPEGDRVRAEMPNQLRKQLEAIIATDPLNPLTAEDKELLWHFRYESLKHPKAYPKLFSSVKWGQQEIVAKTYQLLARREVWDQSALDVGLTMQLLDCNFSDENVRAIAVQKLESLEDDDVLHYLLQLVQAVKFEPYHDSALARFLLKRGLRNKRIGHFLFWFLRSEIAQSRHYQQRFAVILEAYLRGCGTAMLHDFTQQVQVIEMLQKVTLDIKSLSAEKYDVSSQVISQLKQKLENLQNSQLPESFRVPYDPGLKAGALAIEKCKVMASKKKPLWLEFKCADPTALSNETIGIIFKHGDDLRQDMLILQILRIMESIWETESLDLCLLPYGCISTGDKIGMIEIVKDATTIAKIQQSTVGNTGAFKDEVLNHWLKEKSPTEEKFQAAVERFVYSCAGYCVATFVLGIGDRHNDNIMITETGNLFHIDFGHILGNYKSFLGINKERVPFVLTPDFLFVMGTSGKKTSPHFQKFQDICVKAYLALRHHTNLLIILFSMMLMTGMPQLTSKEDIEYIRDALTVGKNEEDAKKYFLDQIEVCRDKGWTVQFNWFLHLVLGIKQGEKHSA

For `O=C1NC(=O)/C(=C/c2cc3cncc(C(=O)NC4CCCCC4)c3o2)S1` [Example 422, (Z)—N-Cyclohexyl-2-{(2,4-dioxothiazolidin-5-ylidene)methyl}furo[3,2-c]pyridine-7-carboxamide], the IC50 on PI3Kα (p110α/p85α)(h) was 31 nM; at PI3Kγ (p120γ)(h) it was 204 nM; at PI3Kδ (p110δ/p85α)(h), 1140 nM; against PI3K β (p110β/p85α)(h), 1230 nM.
On the same counts, the results for `CC(C)NS(=O)(=O)c1c(Cl)cc(-c2cncc3cc(/C=C4\SC(=S)NC4=O)oc23)cc1Cl` [Example 345, (Z)-2,6-Dichloro-N-isopropyl-4-[2-{(4-oxo-2-thioxothiazolidin-5-ylidene)methyl}furo[3,2-c]pyridin-7-yl]benzenesulfonamide] are 11 nM, 4 nM, 89 nM and 3860 nM.
Take `Cc1ccccc1C#Cc1cncc2cc(/C=C3\SC(=S)NC3=O)oc12` [Example 498, (Z)-2-Thioxo-5-[{7-(o-tolylethynyl)furo[3,2-c]pyridin-2-yl}methylene]thiazolidin-4-one]: the IC50 against PI3Kα (p110α/p85α)(h) worked out at 2 nM; against PI3Kγ (p120γ)(h) it was 7 nM; against PI3Kδ (p110δ/p85α)(h), 618 nM; against PI3K β (p110β/p85α)(h), 2270 nM.
In the same order, the values of `CSc1ccc(-c2cncc3cc(/C=C4\SC(=O)NC4=O)oc23)cn1` [Example 41, (Z)-5-([7-{6-(Methylthio)pyridin-3-yl}furo[3,2-c]pyridin-2-yl]methylene)thiazolidine-2,4-dione] are 12 nM, 13 nM, 322 nM and 100 nM.
On to `COc1ccc(C#Cc2cncc3cc(/C=C4\SC(=O)NC4=O)oc23)cc1OC` [Example 469, (Z)-5-([7-{(3,4-Dimethoxyphenyl)ethynyl}furo[3,2-c]pyridin-2-yl]methylene)thiazolidine-2,4-dione], for which the IC50 against PI3Kα (p110α/p85α)(h) came to 2 nM; against PI3Kγ (p120γ)(h), 17 nM; at PI3Kδ (p110δ/p85α)(h), 37 nM; against PI3K β (p110β/p85α)(h), 5090 nM.
In the same order, the values of `COc1ccc(-c2cncc3cc(/C=C4\SC(=S)NC4=O)oc23)cc1F` [Example 161, (Z)-5-[{7-(3-Fluoro-4-methoxyphenyl)furo[3,2-c]pyridin-2-yl}methylene]-2-thioxothiazolidin-4-one] are 13 nM, 17 nM, 191 nM and over 10000 nM.
As to `COC(=O)c1cccc(C#Cc2cncc3cc(/C=C4\SC(=S)NC4=O)oc23)c1` [Example 569, (Z)-Methyl 3-([2-{(4-oxo-2-thioxothiazolidin-5-ylidene)methyl}furo[3,2-c]pyridin-7-yl]ethynyl)benzoate], the IC50 against PI3Kα (p110α/p85α)(h) amounted to 1 nM; at PI3Kγ (p120γ)(h), 16 nM; at PI3Kδ (p110δ/p85α)(h) it was 493 nM; against PI3K β (p110β/p85α)(h), 5920 nM.
On the same counts, the results for `CN(C)S(=O)(=O)c1ccc(-c2cncc3cc(/C=C4\SC(=O)NC4=O)oc23)cc1F` [Example 280, (Z)-4-[2-{(2,4-Dioxothiazolidin-5-ylidene)methyl}furo[3,2-c]pyridin-7-yl]-2-fluoro-N,N-dimethylbenzenesulfonamide] are 46 nM, 22 nM, 3000 nM and 1110 nM.
On the same counts, the results for `CCOC(C#Cc1cncc2cc(/C=C3\SC(=S)NC3=O)oc12)OCC` [Example 483, (Z)-5-[{7-(3,3-Diethoxypropyn-1-yl)furo[3,2-c]pyridin-2-yl}methylene]-2-thioxothiazolidin-4-one] are 23 nM, 33 nM, 113 nM and 184 nM.
In the same order, the values of `Cc1cc(C#Cc2cncc3cc(/C=C4\SC(=O)NC4=O)oc23)ccc1F` [Example 453, (Z)-5-([7-{(4-Fluoro-3-methylphenyl)ethynyl}furo[3,2-c]pyridin-2-yl]methylene)thiazolidine-2,4-dione] are 25 nM, 12 nM, 801 nM and 5070 nM.

In general, IC50 refers to the concentration that gives 50% inhibition.
